The results in this text go back to patent US5696112A, “Fused heterocyclic azepines as vasopressin antagonists” (American Cyanamid Company, priority 1995, dated 1997).

The target in experiment [1] is T1, Rat Kidney Medullary V2 Receptors (vasopressin V2) (Rattus norvegicus, UniProt Q00788).
T1 construct: Medullary tissues from rat kidneys are dissected out; from tissue; host or cells: rat kidney medulla membranes
The experiment is described as follows: Binding Assay to Rat Kidney Medullary V2 Receptors. The settings on record: rat kidney medullary V2, [3H]Arg8-vasopressin. As to the method: Binding Assay to Rat Kidney Medullary V2 Receptors
Medullary tissues from rat kidneys are dissected out, cut into small pieces and let soak in a […] sodium chloride solution containing 1.0 mM EDTA with many changes of the liquid phase, until the solution is clear of blood. The tissue is homogenized in a 0.25M sucrose solution containing 1.0 mM EDTA and 0.1 mM PMSF using a Potter-Elvehjem homogenizer with a teflon pestle. The homogenate is filtered through several layers (4 layers) of cheese cloth. The filtrate is rehomogenized using a dounce homogenizer, with a tight fitting pestle. The final homogenate is contrifuged at 1500×g for 15 min. The nuclear pellet is discarded and the supernatant fluid recentrifuged at 40,000×g for 30 min. The resulting pellet formed contains a dark inner part with the exterior, slightly pink. The pink outer part is suspended in a small amount of 50.0 mMTris.HCl buffer, pH 7.4. The protein content is determined by the Lowry's method (Lowry et al, J. Biol. Chem., 1953). The membrane suspension is stored at -70° C., in 50.0 mMTris.HCl, containing 0.2% inactivated BSA and 0.1 mM PMSF in aliquots of 1.0 ml containing 10.0 mg protein per ml of suspension until use in subsequent binding experiments.
For binding experiments, the following is added in μl volume to wells of a 96 well format of a microtiter plate: 100.0 μl of 100.0 mM Tris.HCl buffer containing 0.2% heat inactivated BSA, 10.0 mM MgCl2 and a mixture of protease inhibitors: leupeptin, 1.0 mg %; aprotinin, 1.0 mg %; 1,10-phenanthroline, 2.0 mg %; trypsin inhibitor, 10.0 mg % and 0.1 mM PMSF, 20.0 μl of [^3 H]Arginine^8, vasopressin (S.A. 75.0 Ci/mmole) at 0.8 nM and the reaction initiated by the addition of 80.0 μl of tissue membranes (200.0 μg tissue protein). The plates are left undisturbed on the bench top for 120 min. to reach equilibrium. Non-specific binding is assessed in the presence of 1.0 μM of unlabeled ligand, added in 20 μl volume. For test compounds, these are solubilized in 50% dimethylsulfoxide (DMSO) and added in 20.0 μl volume to a final incubation volume of 200 μl. Upon completion of binding, the content of each well is filtered off, using a Brandel® cell Harvester (Gaithersburg, Md.). The radioactivity trapped on the filter disk by the ligand-receptor complex is assessed by liquid scintillation counting in a Packard LS Counter, with an efficiency of 65% for tritium. The data are analyzed for IC50 values by the LUNDON-2 program for competition (LUNDON SOFTWARE, OH).

Experiment [2] addresses T2, Rat Hepatic V1 Receptors (vasopressin V1) (Rattus norvegicus, UniProt P30560).
T2 construct: Rat liver plasma membranes expressing the vasopressin V1 receptor subtypes are isolated by sucrose density gradient; from tissue; host or cells: rat liver plasma membranes
As to the kind of experiment: Binding Assay to Rat Hepatic V1 Receptors. To be noted: rat hepatic V1, [3H]vasopressin. As to the method: Binding Assay to Rat Hepatic V1 Receptors
Rat liver plasma membranes expressing the vasopressin V1 receptor subtypes are isolated by sucrose density gradient according to the method described by Lesko et al., (1973). These membranes are quickly suspended in 50.0 mMTris.HCl buffer, pH 7.4, containing 0.2% bovine serum albumin (BSA) and 0.1 mM phenylmethylsulfonylfluoride (PMSF) and kept frozen at -70° C. until used in subsequent binding experiments. For binding experiments, the following is added to the wells of a ninety-six well format microtiter plate: 100 μl of 100.0 mM Tris.HCl buffer containing 10.0 mM MgCl2, 0.2% heat inactivated BSA and a mixture of protease inhibitors: leupeptin, 1.0 mg %; aprotinin, 1.0 mg %, 1,10-phenanthroline,2.0 mg %; trypsin inhibitor, 10.0 mg % and 0.1 mM PMSF, 20.0 μl of [phenylalanyl-3,4,5-^3 H]vasopressin (S.A. 45.1 Ci/mmole) at 0.8 nM, and the reaction initiated by the addition of 80 μl of tissue membranes containing 20 μg of tissue protein. The plates are kept undisturbed on the bench top at room temperature for 120 min. to reach equilibrium. Nonspecific samples are assayed in the presence of 0.1 μM of the unlabeled antagonist phenylalanylvasopressin, added in 20.0 μl volume to a final incubation volume of 200 μl. Upon completion of binding, the content of each well is filtered off, using a Brandel® cell Harvester (Gaithersburg, Md.). The radioactivity trapped on the filter disk by the ligand-receptor complex is assessed by liquid scintillation counting in a Packard LS Counter, with an efficiency of 65% for tritium. The data are analyzed for IC50 values by the LUNDON-2 program for competition (LUNDON SOFTWARE, OH).

The test system of experiment [3] is Vasopressin V2. The experiment is described as follows: Vasopressin V2 Antagonist Activity in Conscious Hydrated Rats. The class given is in vivo, rat. To be noted: AVP 0.4 μg/kg i.p. As to the method: Vasopressin V2 Antagonist Activity in conscious Hydrated Rats Conscious hydrated rats are treated with compounds under study from 0.1 to 100 mg/kg orally or vehicle. Two to four rats are used for each compound. One hour later, arginine vasopressin (AVP, antidiuretic hormone, ADH) dissolved in peanut oil is administered at 0.4 μg/kg intraperitoneally. Two rats in each test would not receive arginine vasopressin but only the vehicle (peanut oil) to serve as water-loading control. Twenty minutes later each rat is given 30 mL/kg of deionized water orally by gavage and is placed individually in a metabolic cage equipped with a funnel and a graduated glass cylinder to collect urine for four hours. Urine volume is measured and osmolality analyzed by use of a Fiske One-Ten osmometer (Fiske Assoc., Norwood, Mass. USA). Urinary sodium, potassium, and chloride are analyzed by use of ion-specific electrodes in a Beckman E3 (Electrolyte 3) Analyzer. In the following results, […] and […] osmolality relative to AVP-control indicates activity.

Experiment [4] deals with Vasopressin V1. As to the kind of experiment: Vasopressin V1 Antagonist Activity in Conscious Rats (vasopressin vasopressor response). Type of experiment: in vivo, rat. As to the method:
Vasopressin V1 Antagonist Activity in Conscious Rats Conscious rats are restrained in a supine position with elastic tape. The area at the base of the tail is locally anesthetization by subcutaneous infiltration with 2% procaine (0.2 ml). Using aseptic technique the ventral caudal tail artery is isolated and a cannula made of PE 10 and 20 (heat-fused) tubing is passed into the lower abdominal aorta. The cannula is secured, heparinized (1000 i.u./cc), sealed and the would closed with one or two stitches of Dexon 4-0. The caudal vein is also cannulated in the same manner for intravenous drug administration. The duration of the surgery is approximately 5 minutes. Additional local anesthesia (2% procaine or lidocaine) is provided as needed. The animals are placed in plastic restraining cages in an upright position. The cannula is attached to a […] pressure transducer and pulsatile blood pressure is recorded. […] Percentage of antagonism by the compound is calculated using the pre-drug vasopressin vasopressor response as 100%.

Experiment [5] concerns the target T3, oxytocin receptors (Rattus norvegicus, UniProt P70536).
T3 construct: The uteri are dissected out, cleaned of fat and connective tissues; from tissue; host or cells: uterus membranes of DES-treated female Sprague-Dawley rats
T3 sequence (P70536 1-388): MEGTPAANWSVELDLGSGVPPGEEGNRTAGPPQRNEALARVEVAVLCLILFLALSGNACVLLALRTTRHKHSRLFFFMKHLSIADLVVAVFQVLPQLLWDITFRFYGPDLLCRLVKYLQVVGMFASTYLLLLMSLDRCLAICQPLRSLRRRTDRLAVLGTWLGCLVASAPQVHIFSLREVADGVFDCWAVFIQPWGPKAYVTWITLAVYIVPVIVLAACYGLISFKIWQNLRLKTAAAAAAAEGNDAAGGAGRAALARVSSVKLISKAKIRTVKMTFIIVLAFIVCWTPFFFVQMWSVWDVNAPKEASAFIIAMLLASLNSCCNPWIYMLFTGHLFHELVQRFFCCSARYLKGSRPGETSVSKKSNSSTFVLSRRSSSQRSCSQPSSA
As to the kind of experiment: Oxytocin Receptor Binding. On the set-up: species or system Sprague-Dawley rats. To be noted: for IC50: 1.0 nM [3H]oxytocin. Here is the method: Oxytocin Receptor Binding
Female Sprague-Dawley rats weighing approximately 200-250 g are injected intramuscularly (i.m.) with 0.3 mg/kg of body weight of diethylstilbestrol (DES). The rats are sacrificed 18 hours later under pentobarbital anesthesia. The uteri are dissected out, cleaned of fat and connective tissues and rinsed in 50 ml of normal saline. The tissue pooled from six rats is homogenized in 50 ml of 0.01 mMTris.HCl, containing 0.5 mM dithiothreitol and 1.0 mM EDTA, adjusted to pH 7.4, using a polytron at setting 6 with three passes of 10 sec each. The homogenate is passed through two (2) layers of cheesecloth and the filtrate centrifuged at 1000×g for 10 min. The clear supernatant is removed and recentrifuged at 165,000×g for 30 min. The resulting pellet containing the oxytocin receptors is resuspended in 50.0 mM Tris.HCl containing 5.0 mM MgCl2 at pH 7.4, to give a protein concentration of 2.5 mg/ml of tissue suspension. This preparation is used in subsequent binding assays with [^3 H]Oxytocin.
Binding of 3,5-[^3 H]Oxytocin ([^3 H]OT) to its receptors is done in microtiter plates using [^3 H]OT, at various concentrations, in an assay buffer of 50.0 mM Tris.HCl, pH 7.4 and containing 5.0 mM MgCl2, and a mixture of protease inhibitors: BSA, 0.1 mg; aprotinin, 1.0 mg; 1,10-phenanthroline, 2.0 mg; […], 10.0 mg; and PMSF, 0.3 mg per 100 ml of buffer solution. Nonspecific binding is determined in the presence of 1.0 uM unlabeled OT. The binding reaction is terminated after 60 min., at 22° C., by rapid filtration through glass fiber filters using a Brandel® cell harvester (Biomedical Research and Development Laboratories, Inc., Gaithersburg, Md.). Competition experiments are conducted at equilibrium using 1.0 nM [^3 H]OT and varying the concentration of the displacing agents. The concentrations of agent displacing 50% of [^3 H]OT at its sites (IC50) are calculated by a computer assisted LUNDON-2 program (LUNDON SOFTWARE INC., Ohio, USA).

[6] abbreviates: Rattus norvegicus, 10 mg/kg iv, read-out: Vasopressin vasopressor response, Max. % Inhibition.

T1 sequence (Q00788 whole entry): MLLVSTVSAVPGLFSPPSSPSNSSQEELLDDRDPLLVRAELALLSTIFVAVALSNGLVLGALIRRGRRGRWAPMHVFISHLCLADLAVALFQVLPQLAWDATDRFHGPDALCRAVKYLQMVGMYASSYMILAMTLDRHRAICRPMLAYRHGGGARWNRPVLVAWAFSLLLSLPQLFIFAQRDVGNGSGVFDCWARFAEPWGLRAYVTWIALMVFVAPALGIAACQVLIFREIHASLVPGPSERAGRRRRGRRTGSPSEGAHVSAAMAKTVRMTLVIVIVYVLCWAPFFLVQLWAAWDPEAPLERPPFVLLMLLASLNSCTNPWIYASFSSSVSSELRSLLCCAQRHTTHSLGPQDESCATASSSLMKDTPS
T2 sequence (P30560 whole entry): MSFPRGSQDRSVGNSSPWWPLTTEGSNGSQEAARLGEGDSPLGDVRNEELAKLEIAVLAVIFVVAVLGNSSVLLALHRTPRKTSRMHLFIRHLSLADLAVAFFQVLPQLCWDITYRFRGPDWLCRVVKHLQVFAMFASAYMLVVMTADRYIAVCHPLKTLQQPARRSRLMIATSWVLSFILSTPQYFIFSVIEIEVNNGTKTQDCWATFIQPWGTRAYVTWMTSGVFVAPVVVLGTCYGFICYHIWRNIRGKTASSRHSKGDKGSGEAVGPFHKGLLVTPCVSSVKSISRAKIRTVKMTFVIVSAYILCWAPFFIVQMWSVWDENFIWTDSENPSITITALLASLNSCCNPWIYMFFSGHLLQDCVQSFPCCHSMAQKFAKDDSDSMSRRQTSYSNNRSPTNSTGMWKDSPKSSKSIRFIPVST

In turn, `O=C(Nc1ccc(C(=O)N2CCCCc3sccc32)cc1)c1ccc(Cl)cc1Cl` [Example 14, N-[4-[(5,6,7,8-Tetrahydro-4H-thieno[3,2-b]azepin-4-yl)carbonyl]phenyl]2,4-dichlorobenzamide] returned an IC50 in experiment [1] of 0.03 µM. The same compound returned a concentration for half-maximal inhibition (IC50) in experiment [2] of 0.12 µM. Further, in experiment [3] (30 mg/kg P.O.), the Osmolality stood at 1432 mOsm/kg and the “Urine Volume” value was found to be 3.5 ml/4 hours. Also, the “Time (Min) of Max. % Inhibition” value in experiment [4] (20 mg/kg iv) came out at 120 min. Besides, the inhibition in vivo at 20 mg/kg in experiment [4] (Rattus norvegicus, 20 mg/kg iv, read-out: Vasopressin vasopressor response, Max. % Inhibition) is 61%.

Take `O=C(Nc1ccc(C(=O)N2CCCCc3sccc32)cn1)c1ccccc1-c1ccccc1` [Example 252]: the IC50 in experiment [5] turned out to be 0.17 µM; in experiment [1], 0.0061 µM; in experiment [2], 0.068 µM. In experiment [5] (2.5 μM), this compound gave an inhibition at 2.5 µM of 93%.

In turn, `O=C(Nc1ccc(C(=O)N2CCCCc3sccc32)cc1)C1CC=CCC1` (stereo not shown) [Example 15, N-[4-[(5,6,7,8-Tetrahydro-4H-thieno[3,2-b]azepin-4-yl)carbonyl]phenyl]3-cyclohexenecarboxamide] registered a concentration for half-maximal inhibition (IC50) in experiment [1] of 0.055 µM. In experiment [2], the IC50 came out at 0.065 µM. In experiment [3] (30 mg/kg P.O.), the Osmolality amounted to 1397 mOsm/kg and the “Urine Volume” value is given as 4.6 ml/4 hours. For the same compound, the “Time (Min) of Max. % Inhibition” value in experiment [4] (10 mg/kg iv) turned out to be 30 min. Moreover, the inhibition in vivo at 10 mg/kg in experiment [4] (setting [6]) was 69%.

Take `O=C(Cc1ccccc1Cl)Nc1ccc(C(=O)N2CCCCc3sccc32)cc1` [Example 2, N-[4-[(5,6,7,8-Tetrahydro-4H-thieno[3,2-b]azepin-4-yl)carbonyl]phenyl]-2-chlorobenzeneacetamide]: the IC50 was found to be 0.0026 µM in experiment [1] and 0.0037 µM in experiment [2]. In addition, the “Urine Volume” value in experiment [3] (10 mg/kg P.O.) was 2.8 ml/4 hours. Also, the “Time (Min) of Max. % Inhibition” value in experiment [4] (10 mg/kg iv) was found to be 60 min. In addition, in experiment [4] (setting [6]), the inhibition in vivo at 10 mg/kg stood at 7.6%.

As to `Cc1ccc(F)cc1C(=O)Nc1ccc(C(=O)N2CCCCc3sccc32)cn1` [Example 243, N-[5-[(5,6,7,8-tetrahydro-4H-thieno[3,2-b]azepin-4-yl)carbonyl]-2-pyridinyl]-5-fluoro-2-methylbenzamide], the IC50 came to 0.34 µM in experiment [5], 0.0061 µM in experiment [1] and 0.068 µM in experiment [2]. In experiment [5] (10 μM), at 10 µM the inhibition was 96%.

Consider `O=C(Cc1ccccc1Cl)Nc1ccc(C(=O)N2CCCCc3sc(Cl)cc32)cc1` [Example 99, N-[4-[(2-Chloro-5,6,7,8-tetrahydro-4H-thieno[3,2-b]azepin-4-yl)carbonyl]phenyl]-2-chlorobenzeneacetamide], for which, in experiment [1], the IC50 was determined as 0.0033 µM. Also, the IC50 in experiment [2] was determined as 0.02 µM. Besides, in experiment [3] (30 mg/kg P.O.), the Osmolality is given as 1135 mOsm/kg and the “Urine Volume” value stood at 10 ml/4 hours. Further, the “Time (Min) of Max. % Inhibition” value in experiment [4] (10 mg/kg iv) came out at 90 min. In addition, in experiment [4] (setting [6]), the inhibition in vivo at 10 mg/kg was 58%.
